Assays:
Format in all cases: cell-based
[1] = system: GR-α translational isoforms; experiment: Western blot of GR protein after Hsp90 inhibitor treatment of TNBC cell lines; details: 50 nM, 8 hrs
Description: (§1) TNBC cell lines were pre-treated for 2 hours with dexamethasone (100 nM) followed by ganetespib (50 nM). Protein and transcript levels were analyzed using Western blot and qRT-PCR respectively.

AR protein = experiment: Western blot of AR protein after Hsp90 inhibitor treatment of TNBC cell lines; details: 50 nM, 8 hrs
Description: as §1

[2] = system: GR target gene transcripts (SGK1 and MKP1/DUSP1); experiment: qRT-PCR of GR target gene transcripts in TNBC cell lines; details: 100 nM dex 2 hours, then ganetespib 50 nM
Description: as §1
This induction was reduced following ganetespib (50 nM) treatment.

AR target gene TMPRSS2 = experiment: qRT-PCR of AR target gene transcript
[3] = system: GR target genes in MDA-MB-231; experiment: Multiplex RT-PCR assay of GR target genes; details: MDA-MB-231, Veh/Veh = 1
Description: The multiplex RT-PCR assay was performed to discover GR target genes that are affected by HSP90 inhibitor treatment of a triple-negative breast cancer cell line, MDA-MB-231.

How did the “GR-α translational isoforms protein level” value [1] turn out when `CC(C)c1cc(-c2n[nH]c(=O)n2-c2ccc3c(ccn3C)c2)c(O)cc1O` [ganetespib] was run?
The value was “depleted”.

And the AR protein level (AR protein)?
Its AR protein level is “depleted”.

And the “Dexamethasone induction of GR target gene transcripts (SGK1 and MKP1/DUSP1)” value [2]?
Its value is “reduced”.

What about the “Androgen-induced expression of the AR target gene TMPRSS2” value (AR target gene TMPRSS2; R1881 1 nM, concomitant ganetespib 50 nM) of the same compound?
The value was “decreased”.

How did the “Expression of the AR target gene TMPRSS2” value (AR target gene TMPRSS2; R1881 1 nM pre-treatment for 2 hours) turn out when `C[C@]1(O)CC[C@H]2[C@@H]3CCC4=CC(=O)CCC4=C3C=C[C@@]21C` [R1881] was run?
The value was “induced”.

`C[C@@H]1C[C@H]2[C@@H]3CCC4=CC(=O)C=C[C@]4(C)[C@@]3(F)[C@@H](O)C[C@]2(C)[C@@]1(O)C(=O)CO` [dexamethasone] was tested. Which ANGPTL4 transcript level [3] did it give?
Its ANGPTL4 transcript level is 8.5.

And the BCL6 transcript level [3]?
The BCL6 transcript level was 2.6.

What about the CALCR transcript level [3] of the same compound?
The CALCR transcript level was 4.3.

What about the CEBPB transcript level [3] of the same compound?
Its CEBPB transcript level is 4.1.

And the DDIT4 transcript level [3]?
Its DDIT4 transcript level is 2.9.

What about the DUSP1 transcript level [3] of the same compound?
The DUSP1 transcript level was 3.7.

What about the EDN1 transcript level [3] of the same compound?
Its EDN1 transcript level is 2.3.

What about the ERRFI1 transcript level [3] of the same compound?
The ERRFI1 transcript level was 3.4.

What about the FKBP5 transcript level [3] of the same compound?
The FKBP5 transcript level was 15.5.

What about the GLUL transcript level [3] of the same compound?
The GLUL transcript level was 1.5.

And the IL6R transcript level [3]?
Its IL6R transcript level is 1.9.

And the KLF9 transcript level [3]?
Its KLF9 transcript level is 9.5.

And the KLF13 transcript level [3]?
The KLF13 transcript level was 2.5.

And the LOX transcript level [3]?
The LOX transcript level was 2.4.

And the MT1E transcript level [3]?
The MT1E transcript level was 2.7.

What about the MT2A transcript level [3] of the same compound?
The MT2A transcript level was 3.0.

And the NFKBIA transcript level [3]?
The NFKBIA transcript level was 2.0.

And the PER1 transcript level [3]?
Its PER1 transcript level is 12.7.

What about the RHOB transcript level [3] of the same compound?
Its RHOB transcript level is 5.6.

What about the SESN1 transcript level [3] of the same compound?
The SESN1 transcript level was 1.4.

What about the SGK1 transcript level [3] of the same compound?
Its SGK1 transcript level is 2.9.

And the SLC19A2 transcript level [3]?
Its SLC19A2 transcript level is 2.0.

What about the SLC22A5 transcript level [3] of the same compound?
The SLC22A5 transcript level was 1.3.

What about the TNFAIP3 transcript level [3] of the same compound?
The TNFAIP3 transcript level was 2.2.

What about the TSC22D3 transcript level [3] of the same compound?
The TSC22D3 transcript level was 22.8.

What about the USP2 transcript level [3] of the same compound?
The USP2 transcript level was 3.1.

What about the XDH transcript level [3] of the same compound?
Its XDH transcript level is 1.3.

And the ZFP36 transcript level [3]?
The ZFP36 transcript level was 4.3.

With `CCNC(=O)c1noc(-c2cc(C(C)C)c(O)cc2O)c1-c1ccc(CN2CCOCC2)cc1` [NVP-AUY922] as the compound, how does the “GR-α translational isoforms protein level” value [1] read?
The value was “depleted”.

And the AR protein level (AR protein)?
Its AR protein level is “depleted”.
